Laboratory results taken from article PMC4721142, “Randomized controlled studies on the efficacy of antiarthritic agents in inhibiting cartilage degeneration and pain associated with progression of osteoarthritis in the rat” (Arthritis Research & Therapy, 2016).
Where “and” joins values, the source holds several entries; their conditions need not be identical. Equal values may be shown once.

Experiments:
MIA rat model of OA = assay: MIA trial 3 histopathology (same doses as dRS test); type: in vivo; set-up: key to Cartilage matrix damage score: 5-point cartilage matrix score; key to Mean of all cartilage loss: approximate % loss, mean of four articular surfaces; Subchondral bone sclerosis: scale not given here; details: group mean
Description: For MIA trial 3, joints were fixed and toluidine blue–stained sections of the rat knees were comprehensively analyzed from test and control subjects as detailed in Additional file 1. Briefly, a 5-point cartilage matrix score was derived based upon (1) approximate percentage of total loss of articular chondrocytes for each of four articular surfaces, (2) estimated proteoglycan loss (via Safranin O staining), and (3) loss of interstitial matrix. Chondrocyte necrosis and proteolytic degeneration of the femurs were scored on a 5-point scale as in trial 1. A femoral cartilage degeneration score and a three-zone sum of the tibial cartilage degeneration scores (mean of three levels) were also summed to create a total cartilage degeneration score. The mean osteophyte score for each joint was added to this value to create a total joint score with matrix. Other parameters assessed included synovial membrane inflammation and proliferation. Representative images from each group were also collected (see, e.g., Fig. 4 and Additional file 1: Fig. S55, Trial 3). […]
Hawes, APS, Pathologist). Treatments were masked during the assessment. Chondrocyte necrosis and proteolytic degeneration of the femurs were scored on a 5 point scale with 0 = None; 1 = <10%; […]
For the histopathology of the MIA model in Trial 3, completed by Bolder BioPATH (and Dr.
Bendele), a tolouidine blue stained slide containing both halves of the joint was comprehensively analyzed from test and control subjects. Approximate % of total loss of articular chondrocytes, loss of proteoglycan and loss of collagenous matrix were determined for each articular surface (medial tibial plateau (MTP), lateral tibial plateau (LTP), medial femoral condyle (MFC), and lateral femoral condyle (LFC). Chondrocyte loss was quantified by estimating the area of cartilage in which there were no apparently viable chondrocytes and proteoglycan loss was quantified by estimating differences in intensity of toluidine blue matrix staining. Loss of interstitial matrix was an indication of disruption and diminished type II collagen. Based on the mean % loss for the four surfaces in these parameters, a five point matrix score was utilized with the subchondral bone resorption, subchondral bone sclerosis and osteophyte scores to achieve a total joint score. […]
[…] steps, stained with toluidine blue (with a right and left halve per section), and analyzed for cartilage degeneration, proteoglycan loss, collagen damage, and osteophyte formation. Results were averaged across the 3 sections for an overall semi-quantitative score. Regional differences across the tibial plateau were taken into consideration by dividing each section into 3 zones delineated using an ocular micrometer (outside, middle, and inside). Scores were based on the percentage of area affected within the zone.
Cartilage degeneration in the tibia was scored on a five point scale for each zone, collagen damage across the medial tibial plateau was measured by total width for each grade damage. Cartilage degeneration in the tibia was scored none to severe (numerical values 0-5) for each zone (area defined by micrometer) using the following criteria: […]

HeLa cells = assay: HeLa cell viability (CellTiter-Glo)
Method in brief: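 HeLa cells with and without drug were tested for viability by CellTiter-Glo luminescence as a toxicity read-out. In the companion NF-κB reporter assay, cells co-transfected with NF-κB firefly and Renilla luciferase plasmids (8:1) were read by Dual-Glo 5 h later, normalized to viable cells and expressed as fold over unstimulated, untreated cells.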

Row | Structure (SMILES) | Bone resorption percent, LFC (MIA rat model of OA; i.a. weekly) [%] | Bone resorption percent, LTP (MIA rat model of OA; i.a. weekly) [%] | Bone resorption percent, MFC (MIA rat model of OA; i.a. weekly) [%] | Bone resorption percent, MTP (MIA rat model of OA; i.a. weekly) [%] | Bone resorption percent, mean (MIA rat model of OA; i.a. weekly) [%] | Bone resorption score (MIA rat model of OA; i.a. weekly) | Cartilage matrix damage score (MIA rat model of OA; i.a. weekly) | Mean of all cartilage loss (MIA rat model of OA; i.a. weekly) | Osteophyte measure (MIA rat model of OA; i.a. weekly) [µm] | Osteophyte score (MIA rat model of OA; i.a. weekly) | Subchondral bone sclerosis (MIA rat model of OA; i.a. weekly) | Total joint score w/o matrix (MIA rat model of OA; i.a. weekly) | Total joint score with matrix (MIA rat model of OA; i.a. weekly) | Non-toxic concentrations (HeLa cells) [M] | further results
1 | Clc1cccc(Cl)c1N=C1NCCN1 [Clonidine] | 51 | 61 | 47 | 65 | 56 | 3.0 | 3.0 and 3.0 ± 1.1 | 47.8 | 560.0 | 2.7 | 0.0 | 5.7 | 8.7 and 8.7 ± 3.3 | – | Bone resorption percent, LFC (MIA rat model of OA; clonidine 100 μg/kg s.c.): 72%; Bone resorption percent, LTP (MIA rat model of OA; clonidine 100 μg/kg s.c.): 87%; Bone resorption percent, MFC (MIA rat model of OA; clonidine 100 μg/kg s.c.): 67%; Bone resorption percent, MTP (MIA rat model of OA; clonidine 100 μg/kg s.c.): 83%; Bone resorption percent, mean (MIA rat model of OA; clonidine 100 μg/kg s.c.): 77%; Bone resorption score (MIA rat model of OA; clonidine 100 μg/kg s.c.): 4.3; Cartilage matrix damage score (MIA rat model of OA; clonidine 100 μg/kg s.c.): 3.7 and 3.7 ± 0.9; Mean of all cartilage loss (MIA rat model of OA; clonidine 100 μg/kg s.c.): 64.9; Osteophyte measure (MIA rat model of OA; clonidine 100 μg/kg s.c.): 560.0 µm; Osteophyte score (MIA rat model of OA; clonidine 100 μg/kg s.c.): 2.7; Subchondral bone sclerosis (MIA rat model of OA; clonidine 100 μg/kg s.c.): 0.0; Total joint score w/o matrix (MIA rat model of OA; clonidine 100 μg/kg s.c.): 7.0; Total joint score with matrix (MIA rat model of OA; clonidine 100 μg/kg s.c.): 10.7 and 10.7 ± 2.8
2 | CC1=C(CO)C(=O)O[C@@H]([C@@H](C)[C@H]2CC[C@H]3[C@@H]4C[C@H]5O[C@]56[C@@H](O)C=CC(=O)[C@]6(C)[C@H]4CC[C@]23C)C1 [Withaferin A] | – | – | – | – | – | – | – | – | – | – | – | – | – | 0 to 17 | –
3 | C=CC[C@@H]1/C=C(\C)C[C@H](C)C[C@H](OC)[C@H]2O[C@@](O)(C(=O)C(=O)N3CCCC[C@H]3C(=O)O[C@H](/C(C)=C/[C@@H]3CC[C@@H](O)[C@H](OC)C3)[C@H](C)[C@@H](O)CC1=O)[C@H](C)C[C@@H]2OC [Tacrolimus] | 100 | 100 | 100 | 100 | 100 | 5.0 | 5.0 and 5.0 ± 0.0 | 92.5 | 666.7 | 3.3 | 0.0 | 8.3 | 13.3 and 13.3 ± 1.7 | 0 to 49.6 | –
4 | CC(C)(C)CC(=O)OCC(=O)[C@@]12OC(C)(C)O[C@@H]1C[C@H]1[C@@H]3CCC4=CC(=O)C=C[C@]4(C)[C@@]3(F)[C@@H](O)C[C@@]12C [Triamcinolone hexacetonide] | 35 | 34 | 35 | 32 | 34 | 2.3 | 3.3 ± 0.9 | 61.1 | 453.3 | 2.0 | 0.7 | 5.0 | 8.3 ± 2.6 | – | Cartilage matrix damage score (MIA rat model of OA; i.a. weekly, listed as TH): 3.3; Total joint score with matrix (MIA rat model of OA; i.a. weekly, listed as Trimacinolone Hexacetonide): 8.3
5 | COc1cc(/C=C/C(=O)CC(=O)/C=C/c2ccc(O)c(OC)c2)ccc1O [Curcumin, Diferuloylmethane] | – | – | – | – | – | – | – | – | – | – | – | – | – | 0 to 33.75 | –
6 | COc1ccc(C=CC(=O)Nc2ccccc2C(=O)O)cc1OC [Tranilast, N-(3′,4′-dimethoxycinnamoyl)anthranilic acid] | 100 | 100 | 100 | 97 | 99 | 5.0 | 5.0 and 5.0 ± 0.0 | 89.7 | 893.3 | 4.3 | 0.0 | 9.3 | 14.3 and 14.3 ± 0.3 | – | –
7 | CC1(C)O[C@@H]2C[C@H]3[C@@H]4C[C@H](F)C5=CC(=O)C=C[C@]5(C)[C@@]4(F)[C@@H](O)C[C@]3(C)[C@]2(C(=O)CO)O1 [Fluocinolone, Fluocinolone Acetonide] | 67 | 67 | 72 | 67 | 68 | 3.7 | 3.3 and 3.3 ± 1.2 | 53.7 | 706.7 | 3.3 | 0.0 | 7.0 | 10.3 and 10.3 ± 2.7 | – | –
